“And” between values parts separate entries of the source, which are not always exact repeats. Equal values may be shown once. Toxic doses and inconclusive results are not listed.
System: L1210 leukemia ip in BDF1 mice, survival T/C
Assay: NCI In Vivo Anticancer Drug Screen. Data for tumor model L1210 Leukemia (intraperitoneal) in B6D2F1 (BDF1) mice
Details: endpoint: mean survival time, higher = longer survival
Procedure, shortened: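 Survival endpoint. Drug-treated group vs vehicle group, expressed as T divided by C. Tumor passaged by transplantation.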

[1] = dose: 100.0 mg/kg/injection, schedule: Q01DX001 (ip), vehicle: carboxymethylcellulose (CMC)
[2] = dose: 50.0 mg/kg/injection, schedule: Q01DX009 (ip), vehicle: saline
[3] = dose: 200.0 mg/kg/injection, schedule: Q01DX009 (ip), vehicle: saline

For `CCN(CC)CCn1ccnc1C`, which T/C (dose: 50.0 mg/kg/injection, schedule: Q01DX005 (ip), vehicle: saline) is on record?
Its T/C is 109 % of control.

What about the T/C (dose: 100.0 mg/kg/injection, schedule: Q01DX005 (ip), vehicle: saline) of the same compound?
The T/C was 104 % of control.

What about the T/C (dose: 200.0 mg/kg/injection, schedule: Q01DX005 (ip), vehicle: saline) of the same compound?
The T/C was 104 % of control.

`CCCCCCCCCCCCCCCCN(C)C(=S)c1ccc(OC)cc1` was tested. Which T/C (dose: 100.0 mg/kg/injection, schedule: Q04DX003 (ip), vehicle: Klucel (hydroxypropylcellulose) (HPC)) did it give?
Its T/C is 101 % of control.

And the T/C (dose: 200.0 mg/kg/injection, schedule: Q04DX003 (ip), vehicle: Klucel (hydroxypropylcellulose) (HPC))?
Its T/C is 101 % of control.

And the T/C (dose: 400.0 mg/kg/injection, schedule: Q04DX003 (ip), vehicle: Klucel (hydroxypropylcellulose) (HPC))?
Its T/C is 94 % of control.

With `C/C=C/C(=O)Nc1ccccc1F` as the compound, how does the T/C (dose: 100.0 mg/kg/injection, schedule: Q01DX009 (ip), vehicle: Klucel (hydroxypropylcellulose) (HPC)) read?
Its T/C is 93 % of control.

And the T/C (dose: 200.0 mg/kg/injection, schedule: Q01DX009 (ip), vehicle: Klucel (hydroxypropylcellulose) (HPC))?
The T/C was 103 % of control.

What does the source list for `Oc1[nH]c(=S)sc1C1=c2ccccc2=NCC1`?
T/C (dose: 44.4 mg/kg/injection, schedule: Q01DX001 (ip), vehicle: carboxymethylcellulose (CMC)): 93 % of control and 94 % of control; T/C (dose: 66.7 mg/kg/injection, schedule: Q01DX001 (ip), vehicle: carboxymethylcellulose (CMC)): 96 % of control and 106 % of control; T/C [1]: 98 % of control and 107 % of control; T/C (dose: 150.0 mg/kg/injection, schedule: Q01DX001 (ip), vehicle: carboxymethylcellulose (CMC)): 98 % of control and 100 % of control

What does the source list for `CCCCCCCCCCCCCCCCCCNC(=O)Nc1cc(C)ccc1C`?
T/C (dose: 100.0 mg/kg/injection, schedule: Q01DX009 (ip), vehicle: gum acacia): 87 % of control; T/C (dose: 100.0 mg/kg/injection, schedule: Q04DX003 (ip), vehicle: gum acacia): 92 % of control; T/C (dose: 200.0 mg/kg/injection, schedule: Q01DX009 (ip), vehicle: gum acacia): 96 % of control; T/C (dose: 200.0 mg/kg/injection, schedule: Q04DX003 (ip), vehicle: gum acacia): 92 % of control; T/C (dose: 400.0 mg/kg/injection, schedule: Q01DX009 (ip), vehicle: gum acacia): 92 % of control; T/C (dose: 400.0 mg/kg/injection, schedule: Q04DX003 (ip), vehicle: gum acacia): 87 % of control

For `O=C(O)CSC1=NCCN1`, which T/C (dose: 25.0 mg/kg/injection, schedule: Q01DX009 (ip), vehicle: saline) is on record?
The T/C was 91 % of control.

What about the T/C [2] of the same compound?
The T/C was 92 % of control.

And the T/C (dose: 50.0 mg/kg/injection, schedule: Q04DX002 (ip), vehicle: saline)?
Its T/C is 106 % of control and 113 % of control.

And the T/C (dose: 100.0 mg/kg/injection, schedule: Q01DX009 (ip), vehicle: saline)?
Its T/C is 90 % of control.

And the T/C (dose: 100.0 mg/kg/injection, schedule: Q04DX002 (ip), vehicle: saline)?
The T/C was 100 % of control and 113 % of control.

And the T/C [3]?
Its T/C is 93 % of control.

And the T/C (dose: 200.0 mg/kg/injection, schedule: Q04DX002 (ip), vehicle: saline)?
Its T/C is 260 % of control and 91 % of control.

What about the T/C (dose: 400.0 mg/kg/injection, schedule: Q01DX009 (ip), vehicle: saline) of the same compound?
Its T/C is 91 % of control.

What about the T/C (dose: 400.0 mg/kg/injection, schedule: Q04DX002 (ip), vehicle: saline) of the same compound?
The T/C was 106 % of control.

`CC(O)(c1ccccc1)c1ccccc1` was tested. Which T/C (dose: 50.0 mg/kg/injection, schedule: Q01DX001 (ip), vehicle: saline) did it give?
Its T/C is 95 % of control.

And the T/C (dose: 100.0 mg/kg/injection, schedule: Q01DX001 (ip), vehicle: saline)?
The T/C was 101 % of control.

And the T/C (dose: 100.0 mg/kg/injection, schedule: Q04DX003 (ip), vehicle: saline with Tween-80)?
Its T/C is 100 % of control.

And the T/C (dose: 200.0 mg/kg/injection, schedule: Q01DX001 (ip), vehicle: saline)?
The T/C was 97 % of control.

What about the T/C (dose: 200.0 mg/kg/injection, schedule: Q04DX003 (ip), vehicle: saline with Tween-80) of the same compound?
Its T/C is 100 % of control.

And the T/C (dose: 400.0 mg/kg/injection, schedule: Q01DX001 (ip), vehicle: saline)?
The T/C was 97 % of control.

And the T/C (dose: 400.0 mg/kg/injection, schedule: Q04DX003 (ip), vehicle: saline with Tween-80)?
The T/C was 110 % of control.

For `COC1OC(COC(=O)c2ccc([N+](=O)[O-])cc2)C(N(C)C(C)=O)C1OC(=O)c1ccc([N+](=O)[O-])cc1` (stereo not drawn), which T/C [1] is on record?
The T/C was 93 % of control.

What about the T/C (dose: 200.0 mg/kg/injection, schedule: Q01DX001 (ip), vehicle: carboxymethylcellulose (CMC)) of the same compound?
The T/C was 93 % of control.

What about the T/C (dose: 400.0 mg/kg/injection, schedule: Q01DX001 (ip), vehicle: carboxymethylcellulose (CMC)) of the same compound?
Its T/C is 93 % of control.

With `OCC1OC([Se])C(O)C(O)C1O.[CH3][Sb][CH3]` (stereo not drawn) as the compound, how does the T/C (dose: 3.13 mg/kg/injection, schedule: Q01DX009 (ip), vehicle: Klucel (hydroxypropylcellulose) (HPC)) read?
Its T/C is 99 % of control.

What about the T/C (dose: 6.25 mg/kg/injection, schedule: Q01DX009 (ip), vehicle: Klucel (hydroxypropylcellulose) (HPC)) of the same compound?
The T/C was 96 % of control and 98 % of control.

And the T/C (dose: 12.5 mg/kg/injection, schedule: Q01DX009 (ip), vehicle: Klucel (hydroxypropylcellulose) (HPC))?
Its T/C is 99 % of control and 104 % of control.

And the T/C (dose: 25.0 mg/kg/injection, schedule: Q01DX009 (ip), vehicle: Klucel (hydroxypropylcellulose) (HPC))?
The T/C was 91 % of control.

Which T/C (dose: 100.0 mg/kg/injection, schedule: Q01DX001 (ip), vehicle: other) does the source give for `COc1ccc(OC)c([N+](=O)[O-])c1C=O` here?
Its T/C is 92 % of control.

And the T/C (dose: 200.0 mg/kg/injection, schedule: Q01DX001 (ip), vehicle: other)?
Its T/C is 90 % of control.

What about the T/C (dose: 400.0 mg/kg/injection, schedule: Q01DX001 (ip), vehicle: other) of the same compound?
Its T/C is 90 % of control.

What does the source list for `Cc1nc(CON)cs1`?
T/C [2]: 92 % of control; T/C (dose: 100.0 mg/kg/injection, schedule: Q04DX003 (ip), vehicle: saline): 100 % of control; T/C [3]: 90 % of control; T/C (dose: 200.0 mg/kg/injection, schedule: Q04DX003 (ip), vehicle: saline): 92 % of control

— PubChem BioAssay AID248 (DTP/NCI, 2004)
